Measurements reported in patent US20240336611A1 (Insilico Medicine IP Limited, priority 2021, published 2024).

Experiments:
[1] = Metabolic stability in human liver microsomes; assay type: in vitro ADME; details: LM Clint (intrinsic clearance); 1 μM test compound, 0.5 mg protein/mL microsome, 37° C., up to 60 min
Description: 2.1. Test Compound and Control Working Solution Preparation: Working solution: 5 µL of compound and control stock solution (10 mM in dimethyl sulfoxide (DMSO)) were diluted with 495 μL of acetonitrile (ACN) (intermediate solution concentration: 100 μM, 99% ACN).
2.2.1. […] 2.2.2. Preparation Procedure: The appropriate amount of NADPH powder were weighed and diluted into a 10 mM MgCl2 solution (working solution concentration: 10 unit/mL; final concentration in reaction system: 1 unit/mL).
2.3.2. Preparation Procedure: The appropriate concentrations of microsome working solutions were prepared in 100 mM potassium phosphate buffer. 2.4. Stop Solution Preparation: Cold (4° C.) acetonitrile (ACN) containing 200 ng/mL tolbutamide and 200 ng/mL labetalol as internal standards (IS) were used as the stop solution.
2.5.1. Pre-warm empty ‘Incubation’ plates T60 and NCF60 for 10 min minutes. 2.5.2. Liver microsomes were diluted to 0.56 mg/mL in 100 mM phosphate buffer. 2.5.3. 445 uL microsome working solutions (0.56 mg/mL) were transferred into pre-warmed ‘Incubation’ plates T60 and NCF60. Then ‘Incubation’ plates T60 and NCF60 were pre-incubated for 10 min at 37° C. with constant shaking. 54 μL liver microsomes were transferred to blank plate, then 6 μL NAPDH cofactor were added to the blank plate, and then 180 μL quenching solution can be added to blank plate. 2.5.4 5 μL compound working solution (100 μM) were added into ‘incubation’ plates (T60 and NCF60) containing microsomes and mix 3 times thoroughly. 2.5.5. For the NCF60 plate, 50 uL of buffer were added and were mixed 3 times thoroughly. Start timing; plate was incubated at 37° C. for 60 min while shaking. 2.5.6. In ‘Quenching’ plate TO, 180 μL quenching solution were added and 6 μL NAPDH cofactor were added. Ensured the plate was chilled to prevent evaporation. 2.5.7. For the T60 plate, were mixed 3 times thoroughly, and immediately removed 54 μL mixture for the 0-min time point to ‘Quenching’ plate. Then 44 μL NAPDH cofactor were added to incubation plate (T60). Start timing; plate were incubated at 37° C. for 60 min while shaking.
2.5.8. At 5, 10, 20, 30, and 60 min, 180 μL quenching solution were added to ‘Quenching’ plates, mix once, and were serially transferred 60 μL sample from T60 plate per time point to ‘Quenching’ plates.
2.5.9. For NCF60: were mixed once, and 60 μL sample were transferred from the NCF60 incubation to ‘Quenching’ plate containing quenching solution at the 60-min time point.
2.5.10. All sampling plates were shaken for 10 min, then centrifuged at 4000 rpm for 20 minutes at 4° C. 2.5.11. 80 μL supernatant were transferred into 240 μL HPLC water, and were mixed by plate shaker for 10 min. 2.5.12. Each bioanalysis plate were sealed and shaken for 10 minutes prior to LC-MS/MS analysis.
3.1. The equation of first order kinetics were used to calculate T1/2 and Intrinsic clearance (CLint mic) in (μL/min/mg).
Equation of first order kinetic.

[2] = target: T1, TNIK kinase [amino acid sequence (1-367), Invitrogen] (Homo sapiens, UniProt Q9UKE5); assay: TNIK kinase inhibition assay (Z-lyte FRET-peptide); assay type: biochemical; details: 0.625 nM TNIK kinase, 2 μM Ser/Thr 7 peptide, 64 μM ATP, one hour at room temperature
T1 construct: purchased Invitrogen
T1 sequence (Q9UKE5 1-367): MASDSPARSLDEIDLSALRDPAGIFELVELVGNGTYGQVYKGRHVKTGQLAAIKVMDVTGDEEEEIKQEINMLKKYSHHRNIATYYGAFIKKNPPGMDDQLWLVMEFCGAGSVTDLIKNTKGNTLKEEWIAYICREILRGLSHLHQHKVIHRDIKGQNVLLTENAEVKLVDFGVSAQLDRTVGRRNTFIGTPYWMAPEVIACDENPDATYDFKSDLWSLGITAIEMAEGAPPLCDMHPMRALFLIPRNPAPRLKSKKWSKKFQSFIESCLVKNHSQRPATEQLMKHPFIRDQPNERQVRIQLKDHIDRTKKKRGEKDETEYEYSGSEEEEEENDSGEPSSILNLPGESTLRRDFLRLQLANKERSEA
Description: Z-lyte assay kit was purchased from Invitrogen. A site-specific protease recognizes and cleaves non-phosphorylated FRET-peptides. Phosphorylation of FRET-peptides suppresses cleavage by protease and will maintain FRET from donor to acceptor.
5 μl of Development Reagent A solution was then added to cleave non-phosphorylated peptide with a dilution 1:65000 in Development Buffer B. The assay plate was incubated at room temperature for another one hour and then read in the Envision plate reader (PerkinElmer).

SMILES | Human Liver Microsome (μM/min/mg) [1] | IC50 [2]
CC(C)n1cnc(-c2ccc(F)cc2)c1-c1nc(C(=O)Nc2ccc(C3=C[C@H]4CC[C@@H](C3)N4C)cn2)cs1 [Compound 61, 2-(4-(4-fluorophenyl)-1-isopropyl-1H-imidazol-5-yl)-N-(5-((1R,5S)-8-methyl-8-azabicyclo[3.2.1]oct-2-en-3-yl)pyridin-2-yl)thiazole-4-carboxamide] | ++ (10-100 μM/min/mg as ++) | 1 to 12 nM
CC(C)n1cnc(-c2ccc(F)cc2)c1-c1nc(C(=O)Nc2ccc(N3C[C@H]4CC[C@@H](C3)N4C)cn2)c[nH]1 [Compound 24, 5′-(4-fluorophenyl)-3′-isopropyl-N-(5-((1R,5S)-8-methyl-3,8-diazabicyclo[3.2.1]octan-3-yl)pyridin-2-yl)-1H,3′H-[2,4′-biimidazole]-4-carboxamide] | ++ (10-100 μM/min/mg as ++) | 1 to 12 nM
CCN1C2CC1CN(c1ccc(NC(=O)c3csc(-c4c(-c5ccc(F)cc5)ncn4C4CC(F)(F)C4)n3)nc1)C2 [Compound 84, 2-(1-(3,3-difluorocyclobutyl)-4-(4-fluorophenyl)-1H-imidazol-5-yl)-N-(5-(6-ethyl-3,6-diazabicyclo[3.1.1]heptan-3-yl)pyridin-2-yl)thiazole-4-carboxamide] | ++ (10-100 μM/min/mg as ++) | 1 to 12 nM
CC(C)c1noc(-c2ccc(F)cc2)c1-c1nc(C(=O)Nc2ccc(C3COC3)cc2F)cs1 [Compound 31, N-(2-fluoro-4-(oxetan-3-yl)phenyl)-2-(5-(4-fluorophenyl)-3-isopropylisoxazol-4-yl)thiazole-4-carboxamide] | ++ (10-100 μM/min/mg as ++) | 12 to 150 nM
CN1C2CC1CN(c1ccc(NC(=O)c3csc(-c4c(-c5ccc(F)cc5)ncn4C4CC4)n3)nc1)C2 [Compound 45, 2-(1-cyclopropyl-4-(4-fluorophenyl)-1H-imidazol-5-yl)-N-(5-(6-methyl-3,6-diazabicyclo[3.1.1]heptan-3-yl)pyridin-2-yl)thiazole-4-carboxamide] | ++ (10-100 μM/min/mg as ++) | 1 to 12 nM
CC(C)n1cnc(-c2ccc(F)cc2)c1-c1nc(C(=O)Nc2ccc(N3CCN(C)CC3)nc2)cs1 [Compound 8, 2-(4-(4-fluorophenyl)-1-isopropyl-1H-imidazol-5-yl)-N-(6-(4-methylpiperazin-1-yl)pyridin-3-yl)thiazole-4-carboxamide] | + (>100 μM/min/mg as +) | 1 to 12 nM
CC(C)n1cnc(-c2ccc(F)cc2)c1-c1nc(C(=O)Nc2ccc3c(c2)CN(C)CC3)cs1 [Compound 56, 2-(4-(4-fluorophenyl)-1-isopropyl-1H-imidazol-5-yl)-N-(2-methyl-1,2,3,4-tetrahydroisoquinolin-7-yl)thiazole-4-carboxamide] | + (>100 μM/min/mg as +) | 1 to 12 nM
CC(C)n1cnc(-c2ccc(F)cc2)c1-c1nc(C(=O)Nc2ccc(N3CCN(C)CC3)cn2)c[nH]1 [Compound 21, 5′-(4-fluorophenyl)-3′-isopropyl-N-(5-(4-methylpiperazin-1-yl)pyridin-2-yl)-1H,3′H-[2,4′-biimidazole]-4-carboxamide] | ++ (10-100 μM/min/mg as ++) | 1 to 12 nM
CC(C)c1onc(-c2ccc(F)cc2)c1-c1nc(C(=O)Nc2ccc(N3CC4CC(C3)N4C)cc2F)cs1 [Compound 98, N-(2-fluoro-4-(6-methyl-3,6-diazabicyclo[3.1.1]heptan-3-yl)phenyl)-2-(3-(4-fluorophenyl)-5-isopropylisoxazol-4-yl)thiazole-4-carboxamide] | ++ (10-100 μM/min/mg as ++) | 1 to 12 nM

More lines, now with the values ahead:

Human Liver Microsome (μM/min/mg) [1] | IC50 [2] | SMILES
++ (10-100 μM/min/mg as ++) |  | O=C(Nc1ccc(N2CCOCC2)cn1)c1c[nH]c(-c2c(-c3ccc(F)cc3)ncn2C2COC2)n1 [Compound 72, 5′-(4-fluorophenyl)-N-(5-morpholinopyridin-2-yl)-3′-(oxetan-3-yl)-1H,3′H-[2,4′-biimidazole]-4-carboxamide]
+++ (1-10 μM/min/mg as +++) | 1 to 12 nM | [2H]C([2H])([2H])N1CC(c2ccc(NC(=O)c3c[nH]c(-c4c(-c5ccc(F)cc5)ncn4C(C)C)n3)c(F)c2)C1 [Compound 114, 2-[5-(4-fluorophenyl)-3-isopropyl-imidazol-4-yl]-N-[2-fluoro-4-[1-(trideuteriomethyl)azetidin-3-yl]phenyl]-1H-imidazole-4-carboxamide]
++ (10-100 μM/min/mg as ++) | 1 to 12 nM | CC(C)n1cnc(-c2ccc(F)cc2)c1-c1nc(C(=O)Nc2ccc(N3CCP(C)(=O)CC3)cc2F)cs1 [Compound 117, N-(2-fluoro-4-(4-methyl-4-oxido-1,4-azaphosphinan-1-yl)phenyl)-2-(4-(4-fluorophenyl)-1-isopropyl-1H-imidazol-5-yl)thiazole-4-carboxamide]
+ (>100 μM/min/mg as +) | 1 to 12 nM | CC(C)n1cnc(-c2ccc(F)cc2)c1-c1nc(C(=O)Nc2ccc(C3COC3)cc2F)cs1 [Compound 59]
++ (10-100 μM/min/mg as ++) |  | [2H]C([2H])([2H])N1CC(c2ccc(NC(=O)c3nc(-c4c(-c5ccc(F)cc5)ncn4C(C)C)cs3)nc2)C1 [Compound 130, 4-[5-(4-fluorophenyl)-3-isopropyl-imidazol-4-yl]-N-[5-[1-(trideuteriomethyl)azetidin-3-yl]-2-pyridyl]thiazole-2-carboxamide]
++ (10-100 μM/min/mg as ++) | 1 to 12 nM | CC(C)c1onc(-c2ccc(F)cc2)c1-c1nc(C(=O)Nc2ccc(C3COC3)cn2)cs1 [Compound 94, 2-(3-(4-fluorophenyl)-5-isopropylisoxazol-4-yl)-N-(5-(oxetan-3-yl)pyridin-2-yl)thiazole-4-carboxamide]
++ (10-100 μM/min/mg as ++) | 1 to 12 nM | CC(C)n1cnc(-c2ccc(F)cc2)c1-c1nc(C(=O)Nc2ccc(C3CN(C)C3)cc2F)cs1 [Compound 58, N-(2-fluoro-4-(1-methylazetidin-3-yl)phenyl)-2-(4-(4-fluorophenyl)-1-isopropyl-1H-imidazol-5-yl)thiazole-4-carboxamide]
++ (10-100 μM/min/mg as ++) | 12 to 150 nM | O=C(Nc1ccc(N2CCOCC2)cn1)c1coc(-c2c(-c3ccc(F)cc3)ncn2C2CC(F)(F)C2)n1 [Compound 66, 2-(1-(3,3-difluorocyclobutyl)-4-(4-fluorophenyl)-1H-imidazol-5-yl)-N-(5-morpholinopyridin-2-yl)oxazole-4-carboxamide]
++ (10-100 μM/min/mg as ++) | 1 to 12 nM | [2H]C([2H])([2H])N1CC(c2ccc(NC(=O)c3nc(-c4c(-c5ccc(F)cc5)ncn4C4CCC4)cs3)nc2)C1 [Compound 121, 4-(1-cyclobutyl-4-(4-fluorophenyl)-1H-imidazol-5-yl)-N-(5-(1-(trideuteriomethyl)azetidin-3-yl)pyridin-2-yl)thiazole-2-carboxamide]
++ (10-100 μM/min/mg as ++) |  | [2H]C([2H])([2H])N1CC(c2ccc(NC(=O)c3nc(-c4c(-c5ccc(F)cc5)ncn4C(C)C)cs3)c(F)c2)C1 [Compound 131, 4-[5-(4-fluorophenyl)-3-isopropyl-imidazol-4-yl]-N-[2-fluoro-4-[1-(trideuteriomethyl)azetidin-3-yl]phenyl]thiazole-2-carboxamide]
